Test system: γ-globin expression
Assay: γ-globin mRNA by RNase protection in erythroid cell cultures of normal individuals
Type: cell-based, human
Details: for x increase: over ChFCS
Protocol: Fetal globin production was determined in erythroid progenitor cells cultured in the presence or absence of test compositions. Erythroid cells were purified from blood obtained from a normal individual . […] Erythroid cell cultures were established with the following conditions: IMDM methylcellulose media, erythropoietin (3 U/ml), the human subjects' mononuclear cells, 30% charcoal-absorbed fetal calf serum, and the test compounds at varying micromolar concentrations.
Compounds were tested for their ability to induce expression of fetal globin expression in erythroid cell cultures established from the peripheral blood of normal individuals. Colonies were harvested and assayed for globin mRNA following 14 days of culture. Each compound was tested in duplicate cultures from 2-4 individual human subjects. Globin expression was quantitated by RNase protection assay for % gamma globin as a fraction of total non-alpha globin (% gamma/gamma+beta globin mRNA).

## CCCC(=O)NO [butyryl hydroxamate]
6 μM, group 1 (99-4, 99-5)
  x increase: 1.0 x
6 μM, group 1, subject 99-4
  γ/γ + β: 2.29%
6 μM, group 1, subject 99-5
  γ/γ + β: 3.40%
6 μM, group 1, subjects 99-4, 99-5
  γ/γ + β mean: 2.85%
10 μM, group 1 (99-4, 99-5)
  x increase: 1.3 x
10 μM, group 1, subject 99-4
  γ/γ + β: 3.44%
10 μM, group 1, subject 99-5
  γ/γ + β: 4.06%
10 μM, group 1, subjects 99-4, 99-5
  γ/γ + β mean: 3.75%
20 μM, group 1 (99-4, 99-5)
  x increase: 1.9 x
20 μM, group 1, subject 99-4
  γ/γ + β: 4.43%
20 μM, group 1, subject 99-5
  γ/γ + β: 6.06%
20 μM, group 1, subjects 99-4, 99-5
  γ/γ + β mean: 6.25%
20 μM, group 2 (99-6, 99-7)
  x increase: 1.0 x
20 μM, group 2, subject 99-6
  γ/γ + β: 8.65%
20 μM, group 2, subject 99-7
  γ/γ + β: 12.49%
20 μM, group 2, subjects 99-6, 99-7
  γ/γ + β mean: 10.57%
30 μM, group 1 (99-4, 99-5)
  x increase: 1.7 x
30 μM, group 1, subject 99-4
  γ/γ + β: 4.12%
30 μM, group 1, subject 99-5
  γ/γ + β: 5.35%
30 μM, group 1, subjects 99-4, 99-5
  γ/γ + β mean: 4.74%
40 μM, group 1 (99-4, 99-5)
  x increase: 2.8 x
40 μM, group 1, subject 99-5
  γ/γ + β: 7.72%
40 μM, group 1, subject 99-5 only
  γ/γ + β mean: 7.72%
40 μM, group 2 (99-6, 99-7)
  x increase: 1.5 x
40 μM, group 2, subject 99-6
  γ/γ + β: 14.81%
40 μM, group 2, subject 99-7
  γ/γ + β: 17.39%
40 μM, group 2, subjects 99-6, 99-7
  γ/γ + β mean: 16.10%
60 μM, group 2 (99-6, 99-7)
  x increase: 4.1 x
60 μM, group 2, subject 99-6
  γ/γ + β: 37.65%
60 μM, group 2, subject 99-7
  γ/γ + β: 51.04%
60 μM, group 2, subjects 99-6, 99-7
  γ/γ + β mean: 44.35%
80 μM, group 2 (99-6, 99-7)
  x increase: 4.7 x
80 μM, group 2, subject 99-6
  γ/γ + β: 44.98%
80 μM, group 2, subject 99-7
  γ/γ + β: 55.39%
80 μM, group 2, subjects 99-6, 99-7
  γ/γ + β mean: 50.19%
100 μM, group 2 (99-6, 99-7)
  x increase: 5.3 x
100 μM, group 2, subject 99-6
  γ/γ + β: 54.06%
100 μM, group 2, subject 99-7
  γ/γ + β: 60.90%
100 μM, group 2, subjects 99-6, 99-7
  γ/γ + β mean: 57.48%

## CCC(=O)NO [propionyl hydroxamate]
1 μM, 990709
  x increase: 1.1 x
1 μM, 990709, subject 99-4
  γ/γ + β: 1.39%
1 μM, 990709, subject 99-5
  γ/γ + β: 2.39%
1 μM, 990709, subjects 99-4, 99-5
  γ/γ + β mean: 1.89%
8 μM, 990709
  x increase: 0.9 x
8 μM, 990709, subject 99-4
  γ/γ + β: 1.19%
8 μM, 990709, subject 99-5
  γ/γ + β: 1.73%
8 μM, 990709, subjects 99-4, 99-5
  γ/γ + β mean: 1.46%
10 μM, 990709
  x increase: 1.5 x
10 μM, 990709, subject 99-4
  γ/γ + β: 1.86%
10 μM, 990709, subject 99-5
  γ/γ + β: 3.28%
10 μM, 990709, subjects 99-4, 99-5
  γ/γ + β mean: 2.57%
25 μM, 991208
  x increase: 1.5 x
25 μM, 991208, subject 00-1
  γ/γ + β: 12.17%
25 μM, 991208, subject 00-3
  γ/γ + β: 12.38%
25 μM, 991208, subjects 00-1, 00-3
  γ/γ + β mean: 12.27%
50 μM, 0601-0
  x increase: 2.5 x
50 μM, 0601-0, subject 00-3
  γ/γ + β: 9.57%
50 μM, 0601-0, subject 00-3 only
  γ/γ + β mean: 9.57%
50 μM, 990709
  x increase: 3.0 x
50 μM, 990709, subject 99-4
  γ/γ + β: 3.80%
50 μM, 990709, subject 99-5
  γ/γ + β: 6.40%
50 μM, 990709, subjects 99-4, 99-5
  γ/γ + β mean: 5.10%
50 μM, 991208
  x increase: 2.5 x
50 μM, 991208, subject 00-1
  γ/γ + β: 20.79%
50 μM, 991208, subject 00-3
  γ/γ + β: 21.30%
50 μM, 991208, subjects 00-1, 00-3
  γ/γ + β mean: 21.05%
100 μM, 0601-0
  x increase: 4.8 x
100 μM, 0601-0, subject 00-3
  γ/γ + β: 16.66%
100 μM, 0601-0, subject 00-3 only
  γ/γ + β mean: 16.66%
100 μM, 990709
  x increase: 4.6 x
100 μM, 990709, subject 99-4
  γ/γ + β: 7.78%
100 μM, 990709, subject 99-5
  γ/γ + β: 8.80%
100 μM, 990709, subjects 99-4, 99-5
  γ/γ + β mean: 7.72%
100 μM, 991208
  x increase: 4.3 x
100 μM, 991208, subject 00-1
  γ/γ + β: 32.74%
100 μM, 991208, subject 00-3
  γ/γ + β: 38.33%
100 μM, 991208, subjects 00-1, 00-3
  γ/γ + β mean: 35.54%
125 μM, 991208
  x increase: 4.7 x
125 μM, 991208, subject 00-1
  γ/γ + β: 37.83%
125 μM, 991208, subject 00-3
  γ/γ + β: 39.14%
125 μM, 991208, subjects 00-1, 00-3
  γ/γ + β mean: 38.49%
150 μM, 0601-0
  x increase: 6.3 x
150 μM, 0601-0, subject 00-3
  γ/γ + β: 24.40%
150 μM, 0601-0, subject 00-3 only
  γ/γ + β mean: 24.40%
150 μM, 991208
  x increase: 6.7 x
150 μM, 991208, subject 00-1
  γ/γ + β: 59.60%
150 μM, 991208, subject 00-3
  γ/γ + β: 51.56%
150 μM, 991208, subjects 00-1, 00-3
  γ/γ + β mean: 55.58%
5 to 150 micromolar
  fetal (gamma) globin expression, fold over control cultures: 1.5-6.7 fold

From US6403647B1, “Pulsed administration of compositions for the treatment of blood disorders” (priority 1996, dated 2002)
